This passage reports EC50 results from patent US8575135B2 (Gilead Sciences, Inc., priority 2011, dated 2013).

The structures appear in SMILES notation. Where two headings read alike, the source gives them in different places.

Holding throughout (assay): microbe, parasite or virus in culture
Common to all, as to settings: Hepatitis C virus

Assay [1] has as its system NS5A chimeric genotype 2a JFH-1 replicon with genotype 2b MD2b-1 strain NS5A gene (M31 present). It counts as cell-based, HCV. The method, then:
(§1) Evaluation of Cell-Based Anti-HCV Activity:
(§2) Antiviral potency (EC50) was determined using a Renilla luciferase (RLuc)-based HCV replicon reporter assay. […] To perform the assay for genotype 2a (with M31 present in NS5A) or 2b, NS5A chimeric genotype 2a JFH-1 replicons that encodes a RLuc-Neo reporter and either genotype 2a J6 strain NS5A gene or genotype 2b MD2b-1 strain NS5A gene (both with M31 present) respectively, were either transiently transfected (t) into Huh-Lunet cells or were established as stably replicating replicon cells (s) is provided. Either cells were dispensed into 384-well plates for EC50 assays. To perform the assay for genotype 3 and 4, NS5A chimeric genotype 1b Con1 replicons that encodes a Pi-RLuc reporter and either genotype 3a S52 strain NS5A gene or genotype 4a ED43 strain NS5A gene respectively, were transiently transfected (t) into Huh-Lunet cells, which were subsequently dispensed into 384-well plates. Compounds were dissolved in DMSO at a concentration of 10 mM and diluted in DMSO either manually or using an automated pipeting instrument. Serially 3-fold diluted compounds were either manually mixed with cell culture media and added to the seeded cells or directly added to the cells using an automated instrument. […] 72 hours later, cells were lysed and Renilla luciferase activity quantified as recommended by the manufacturer (Promega-Madison, Wis.). Non-linear regression was performed to calculate EC50 values.

Assay [2] concerns NS5A chimeric genotype 1b Con1 replicon with genotype 3a S52 strain NS5A gene. It counts as cell-based, HCV. The method, then: as §1, §2
In assay [3] the test system is NS5A chimeric genotype 2a JFH-1 replicon with genotype 2a J6 strain NS5A gene (M31 present). It counts as cell-based, HCV. The method, then: as §1, §2
Assay [4] has as its system 1a Pi-Rluc replicon with Q30R in genotype 1a NS5A. It counts as cell-based, HCV. The method, then: as §2
To determine the antiviral potency (EC50) against resistance mutants, resistance mutations, including M28T, Q30R, Q30H, L31M, and Y93C in genotype 1a NS5A and Y93H in genotype 1b NS5A, were introduced individually into either 1a Pi-Rluc or 1b Pi-Rluc replicons by site directed mutagenesis. Replicon RNA of each resistant mutant was transiently transfected into Huh-7-derived cured-51 cells and antiviral potency was determined on these transfected cells as described above.

For assay [5], the system named is stable HCV 1a RLuc replicon cells (genotype 1a H77 replicon). It counts as cell-based. The method, then:
as §1, §2

Assay [6] concerns stable HCV 2a JFH-1 Rluc replicon cells (L31 present in NS5A). In kind it is cell-based.

Consider `COC[C@H]1C[C@@H](c2ncc(-c3ccc4c(c3)COc3cc5c(ccc6nc([C@@H]7CCCN7C(=O)[C@H](NC(=O)OC)c7ccccc7)[nH]c65)cc3-4)[nH]2)N(C(=O)[C@@H](NC(=O)OC)[C@@H](C)OC)C1` [Compound 626], for which the EC50 in assay [1] (read-out: 2b) is under 1 nM; in assay [1] (read-out: 2b (t) (nM)), 0.021 nM; in assay [2] (read-out: 3a), under 1 nM; in assay [2] (read-out: 3a (nM)) it was 0.027 nM; in assay [3] (read-out: 2a J6), under 1 nM; in assay [3] (read-out: 2a Jb (t) (nM)), 0.021 nM. Also, the EC50 in assay [4] (read-out: 1a Q30R) is under 1 nM; in assay [4] (read-out: 1a Q30R (nM)), 0.041 nM; in assay [5] (read-out: 1a), under 1 nM; in assay [5] (read-out: 1a (nM)), 0.021 nM; in assay [6] (read-out: 2a JFH), under 1 nM; in assay [6] (read-out: 2a JFH (nM)) it was 0.009 nM.
On to `COC(=O)N[C@H](C(=O)N1[C@@H](C)CC[C@H]1c1ncc(-c2ccc3c(c2)COc2cc4c(ccc5nc([C@@H]6CCCN6C(=O)[C@H](NC(=O)OC)c6ccccc6)[nH]c54)cc2-3)[nH]1)C(C)C` [Example NQ, Methyl {(2S)-1-[(2S,5S)-2-(5-{2-[(2S)-1-{(2R)-2-[(methoxycarbonyl)amino]-2-phenylacetyl}pyrrolidin-2-yl]-1,11-dihydroisochromeno[4′,3′:6,7]naphtho[1,2-d]imidazol-9-yl}-1H-imidazol-2-yl)-5-methylpyrrolidin-1-yl]-3-methyl-1-oxobutan-2-yl}carbamate], for which the EC50 is under 1 nM in assay [1] (read-out: 2b); 0.012 nM in assay [1] (read-out: 2b (s) (nM)); 0.013 nM in assay [1] (read-out: 2b (t) (nM)); under 1 nM in assay [2] (read-out: 3a); 0.013 nM in assay [2] (read-out: 3a (nM)); under 1 nM in assay [3] (read-out: 2a J6). Moreover, the EC50 in assay [3] (read-out: 2a Jb (t) (nM)) was 0.064 nM; in assay [4] (read-out: 1a Q30R), under 1 nM; in assay [4] (read-out: 1a Q30R (nM)), 0.039 nM; in assay [5] (read-out: 1a), under 1 nM; in assay [5] (read-out: 1a (nM)) it was 0.017 nM; in assay [6] (read-out: 2a JFH) it was under 1 nM. In addition, the EC50 in assay [6] (read-out: 2a JFH (nM)) was 0.006 nM.
With `COC[C@H]1C[C@@H](c2ncc(-c3ccc4c(c3)COc3cc5c(cc3-4)CCc3nc([C@@H]4CCCN4C(=O)[C@@H](NC(=O)OC)C(C)C)[nH]c3-5)[nH]2)N(C(=O)[C@H](NC(=O)OC)c2ccccc2)C1` [Example OK, Methyl {(1R)-2-[(2S,4S)-2-(5-{2-[(2S)-1-{(2S)-2-[(methoxycarbonyl)amino]-3-methylbutanoyl}pyrrolidin-2-yl]-1,4,5,11-tetrahydroisochromeno[4′,3′:6,7]naphtho[1,2-d]imidazol-9-yl}-1H-imidazol-2-yl)-4-(methoxymethyl)pyrrolidin-1-yl]-2-oxo-1-phenylethyl}carbamate], the EC50 in assay [1] (read-out: 2b) was under 1 nM; in assay [1] (read-out: 2b (s) (nM)), 0.045 nM; in assay [1] (read-out: 2b (t) (nM)) it was 0.036 nM; in assay [2] (read-out: 3a), under 1 nM; in assay [2] (read-out: 3a (nM)) it was 0.028 nM; in assay [3] (read-out: 2a J6), under 1 nM. The EC50 in assay [3] (read-out: 2a Jb (t) (nM)) is 0.076 nM; in assay [4] (read-out: 1a Q30R), under 1 nM; in assay [4] (read-out: 1a Q30R (nM)), 0.039 nM; in assay [5] (read-out: 1a), under 1 nM; in assay [5] (read-out: 1a (nM)), 0.026 nM; in assay [6] (read-out: 2a JFH), under 1 nM. In addition, the EC50 in assay [6] (read-out: 2a JFH (nM)) is 0.011 nM.
As to `CC[C@H](C)[C@H](NC(=O)OC)C(=O)N1C[C@@H](COC)C[C@H]1c1nc2ccc3cc4c(cc3c2[nH]1)OCc1cc(-c2cnc([C@@H]3CC[C@H](C)N3C(=O)[C@@H](NC(=O)OC)C(C)C)[nH]2)ccc1-4` [Example ON, methyl {(2S)-1-[(2S,4S)-2-(5-{2-[(2S,5S)-1-{(2S,3S)-2-[(methoxycarbonyl)amino]-3-methylpentanoyl}-4-(methoxymethyl)-2-yl]-1,11-dihydroisochromeno[4′,3′:6,7]naphtho[1,2-d]imidazol-9-yl}-1H-imidazol-2-yl)-5-methylpyrrolidin-1-yl]-3-methyl-1-oxobutan-2-yl}carbamate], the EC50 in assay [1] (read-out: 2b (t) (nM)) was 0.086 nM; in assay [3] (read-out: 2a J6), under 1 nM; in assay [3] (read-out: 2a Jb (t) (nM)), 0.068 nM; in assay [4] (read-out: 1a Q30R) it was under 1 nM; in assay [5] (read-out: 1a), under 1 nM; in assay [5] (read-out: 1a (nM)), 0.005 nM. The values for the EC50 in assay [6] (read-out: 2a JFH) and in assay [6] (read-out: 2a JFH (nM)) were under 1 nM and 0.004 nM, respectively.
As for `COC[C@H]1C[C@@H](c2ncc(-c3ccc4c(c3)COc3cc5c(ccc6nc([C@@H]7C[C@@H]8C[C@@H]8N7C(=O)[C@@H](NC(=O)OC)C(C)C)[nH]c65)cc3-4)[nH]2)N(C(=O)[C@H](NC(=O)OC)c2ccccc2)C1` [Example OV, Methyl {(1R)-2-[(2S,4S)-2-(5-{2-[(1S,3S,5S)-2-{(2S)-2-[(methoxycarbonyl)amino]-3-methylbutanoyl}-2-azabicyclo[3.1.0]hex-3-yl]-1,11-dihydroisochromeno[4′,3′:6,7]naphtho[1,2-d]imidazol-9-yl}-1H-imidazol-2-yl)-4-(methoxymethyl)pyrrolidin-1-yl]-2-oxo-1-phenylethyl}carbamate], the EC50 in assay [1] (read-out: 2b) is under 1 nM; in assay [1] (read-out: 2b (t) (nM)), 0.046 nM; in assay [2] (read-out: 3a), under 1 nM; in assay [2] (read-out: 3a (nM)), 0.013 nM; in assay [3] (read-out: 2a J6), under 1 nM; in assay [3] (read-out: 2a Jb (t) (nM)), 0.113 nM. The EC50 in assay [4] (read-out: 1a Q30R) was under 1 nM; in assay [4] (read-out: 1a Q30R (nM)), 0.031 nM; in assay [5] (read-out: 1a) it was under 1 nM; in assay [5] (read-out: 1a (nM)), 0.01 nM; in assay [6] (read-out: 2a JFH), under 1 nM; in assay [6] (read-out: 2a JFH (nM)), 0.007 nM.
`COC[C@H]1C[C@@H](c2ncc(-c3ccc4c(c3)COc3cc5c(ccc6nc([C@@H]7C[C@H]8C[C@H]8N7C(=O)[C@@H](NC(=O)OC)C(C)C)[nH]c65)cc3-4)[nH]2)N(C(=O)[C@H](NC(=O)OC)c2ccccc2)C1` [Example PR, methyl {(1R)-2-[(2S,4S)-2-(5-{2-[(1R,3S,5R)-2-{(2S)-2-[(methoxycarbonyl)amino]-3-methylbutanoyl}-2-azabicyclo[3.1.0]hex-3-yl]-1,11-dihydroisochromeno[4′,3′:6,7]naphtho[1,2-d]imidazol-9-yl}-1H-imidazol-2-yl)-4-(methoxymethyl)pyrrolidin-1-yl]-2-oxo-1-phenylethyl}carbamate]: the EC50 in assay [1] (read-out: 2b) is under 1 nM; in assay [1] (read-out: 2b (t) (nM)), 0.028 nM; in assay [2] (read-out: 3a), under 1 nM; in assay [2] (read-out: 3a (nM)) it was 0.018 nM; in assay [3] (read-out: 2a J6) it was under 1 nM; in assay [3] (read-out: 2a Jb (t) (nM)) it was 0.022 nM. Further, the EC50 in assay [4] (read-out: 1a Q30R) is under 1 nM; in assay [4] (read-out: 1a Q30R (nM)), 0.045 nM; in assay [5] (read-out: 1a), under 1 nM; in assay [5] (read-out: 1a (nM)), 0.013 nM; in assay [6] (read-out: 2a JFH), under 1 nM; in assay [6] (read-out: 2a JFH (nM)) it was 0.007 nM.
With `COC(=O)N[C@H](C(=O)N1[C@@H](C)CC[C@H]1c1nc2ccc3cc4c(cc3c2[nH]1)OCc1cc(-c2cnc([C@@H]3C[C@H](C)CN3C(=O)[C@H](NC(=O)OC)c3ccccc3)[nH]2)ccc1-4)C(C)C` [Example QF, Methyl {(2S)-1-[(2S,5S)-2-(9-{2-[(2S,4S)-1-{(2R)-2-[(methoxycarbonyl)amino]-2-phenylacetyl}-4-methylpyrrolidin-2-yl]-1H-imidazol-5-yl}-1,11-dihydroisochromeno[4′,3′:6,7]naphtho[1,2-d]imidazol-2-yl)-5-methylpyrrolidin-1-yl]-3-methyl-1-oxobutan-2-yl}carbamate], the EC50 in assay [1] (read-out: 2b) was under 1 nM; in assay [1] (read-out: 2b (s) (nM)) it was 0.011 nM; in assay [1] (read-out: 2b (t) (nM)), 0.015 nM; in assay [2] (read-out: 3a), under 1 nM; in assay [2] (read-out: 3a (nM)) it was 0.02 nM; in assay [3] (read-out: 2a J6), under 1 nM. The EC50 was 0.053 nM in assay [3] (read-out: 2a Jb (t) (nM)); under 1 nM in assay [4] (read-out: 1a Q30R); 0.032 nM in assay [4] (read-out: 1a Q30R (nM)); under 1 nM in assay [5] (read-out: 1a); 0.008 nM in assay [5] (read-out: 1a (nM)); under 1 nM in assay [6] (read-out: 2a JFH). In addition, the EC50 in assay [6] (read-out: 2a JFH (nM)) turned out to be 0.004 nM.
